From US8362000B2, “Azetidinyl diamides as monoacylglycerol lipase inhibitors” (Janssen Pharmaceutica NV, priority 2009, dated 2013) come the findings set out here.

The structures appear in SMILES notation. Changes are numbered by the printed parent chain. Where two headings read alike, the source gives them in different places.

Assay [1] deals with T1, purified wild type MGL (wt-MGLL 6H-11-313) (Homo sapiens, UniProt Q99685).
T1 sequence (Q99685 1-303): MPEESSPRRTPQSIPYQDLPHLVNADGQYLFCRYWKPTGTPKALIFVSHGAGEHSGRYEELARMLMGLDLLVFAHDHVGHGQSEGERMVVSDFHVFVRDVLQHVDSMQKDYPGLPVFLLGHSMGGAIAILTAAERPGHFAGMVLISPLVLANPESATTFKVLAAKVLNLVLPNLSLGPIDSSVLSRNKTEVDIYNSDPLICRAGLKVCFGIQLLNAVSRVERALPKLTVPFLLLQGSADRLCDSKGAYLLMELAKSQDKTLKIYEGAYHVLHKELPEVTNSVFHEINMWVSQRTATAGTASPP

Assay [2] addresses T2, mutant MGL (Homo sapiens, UniProt Q99685, L169S/L176S).
T2 sequence (Q99685 1-303 L169S/L176S): T1 sequence (Q99685 1-303) with L169S, L176S
Description: MGL ThermoFluor assay - mutant. The class given is binding.

The target of assay [3] is T3, MGL (Rattus norvegicus, UniProt Q8R431).
T3 construct: one g rat brain was homogenized using a Polytron homogenizer; from tissue; host or cells: rat brain homogenate
T3 sequence (Q8R431 1-303): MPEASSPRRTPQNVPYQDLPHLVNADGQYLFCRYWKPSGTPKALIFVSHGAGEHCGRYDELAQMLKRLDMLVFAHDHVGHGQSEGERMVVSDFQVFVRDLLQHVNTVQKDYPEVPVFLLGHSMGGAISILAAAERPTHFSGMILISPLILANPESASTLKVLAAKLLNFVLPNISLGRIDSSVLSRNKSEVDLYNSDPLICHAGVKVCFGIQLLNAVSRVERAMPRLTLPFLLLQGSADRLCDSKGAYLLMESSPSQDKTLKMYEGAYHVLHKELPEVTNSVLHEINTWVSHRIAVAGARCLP
Description: 2-AG accumulation assay in rat brain homogenate. In kind it is biochemical. The following applies: rat brain homogenate; compound 1 μM; 2-AG accumulation as percent of vehicle; read-out: Rat Brain 2AG % VehCntrl (%) @ 1 μM.

[4] abbreviates: ThermoFluor, compound concentration measured by qNMR, read-out: MGL mutant ThermoFluor qKd (μM) (using qNMR conc.).
Where [5] appears, read: ThermoFluor concentration-response, read-out: MGL mutant ThermoFluor Kd.
Where [6] appears, read: ThermoFluor, compound concentration measured by qNMR, read-out: MGL mutant ThermoFluor qKd (using qNMR conc.).
[7] abbreviates: ThermoFluor thermal stability binding assay, read-out: MGL mutant ThermoFluor Kd.

With `Cc1c(C(=O)N2CC(N3CCN(C(=O)c4nccs4)CC3)C2)sc2nc(C(F)(F)F)ccc12` [Cpd 686], the IC50 (usually the concentration needed to halve the response being measured) in assay [1] stood at 39 nM. Further, the Kd in assay [2] (setting [4]) worked out at 0.002 µM. The 2-AG accumulation, % of vehicle control at 1 µM in assay [3] amounted to 552%.
The molecule `Cc1ccc(-c2nnc(-c3ccc(C(=O)N4CC(N5CCN(C(=O)c6nccs6)CC5)C4)cc3)o2)cc1` [Cpd 1156] gave a 50% inhibitory concentration (IC50) in assay [1] of 41 nM. For the same molecule, in assay [2] (setting [5]), the Kd was found to be 0.09 µM. The 2-AG accumulation, % of vehicle control at 1 µM in assay [3] stood at 681%.
The molecule `O=C(c1ccc2c(ccn2-c2ccc(C(F)(F)F)nc2)c1)N1CC(N2CCN(C(=O)c3ccc[nH]3)CC2)C1` [Cpd 1062, 5-({3-[4-(1H-Pyrrol-2-ylcarbonyl)piperazin-1-yl]azetidin-1-yl}carbonyl)-1-[6-(trifluoromethyl)pyridin-3-yl]-1H-indole] displayed an IC50 in assay [1] of 7 nM. In addition, the Kd in assay [2] (setting [6]) amounted to 0.1 µM. For the same molecule, the 2-AG accumulation, % of vehicle control at 1 µM in assay [3] was found to be 451%.
On to `O=C(c1cscn1)N1CCN(C2CN(C(=O)c3sc4ccc(Cl)cc4c3C(F)(F)F)C2)CC1` [Cpd 673], for which, in assay [1], the IC50 turned out to be 17 nM. The Kd in assay [2] (setting [5]) worked out at 0.05 µM. Also, the 2-AG accumulation, % of vehicle control at 1 µM in assay [3] stood at 280%.
In assay [1], `O=C(c1cccc(-c2ccccc2C(F)(F)F)c1)N1CC(N2CCN(C(=O)c3cscn3)CC2)C1` [Cpd 1185] registered an IC50 of 88 nM. For the same molecule, the Kd in assay [2] (setting [5]) turned out to be 1.32 µM. The 2-AG accumulation, % of vehicle control at 1 µM in assay [3] turned out to be 241%.
`Cc1c(C(=O)N2CC(N3CCN(C(=O)c4nccs4)CC3)C2)n(C)c2ccc(Cl)cc12` [Cpd 696]: in assay [1], inhibition was half-maximal at 59 nM (IC50). In addition, the Kd in assay [2] (setting [6]) was found to be 0.063 µM. Further, in assay [3], the 2-AG accumulation, % of vehicle control at 1 µM came out at 444%.
Consider `O=C(c1ccccc1)N1CCN(C2CN(C(=O)c3cc4c(C(F)(F)F)cccc4s3)C2)CC1` [Cpd 330, 1-(Phenylcarbonyl)-4-(1-{[4-(trifluoromethyl)-1-benzothiophen-2-yl]carbonyl}azetidin-3-yl)piperazine], for which, in assay [1], half-maximal inhibition (IC50) required 308 nM. For the same molecule, the Kd in assay [2] (setting [7]) was 0.438 µM. Moreover, in assay [3], the 2-AG accumulation, % of vehicle control at 1 µM came out at 197%.
For the molecule `Cc1c(C(=O)N2CC(N3CCN(C(=O)c4nccs4)CC3)C2)[nH]c2ccc(Cl)cc12` [Cpd 688, 5-Chloro-3-methyl-2-({3-[4-(1,3-thiazol-2-ylcarbonyl)piperazin-1-yl]azetidin-1-yl}carbonyl)-1H-indole], in assay [1], the IC50 stood at 44 nM. The Kd in assay [2] (setting [5]) is 0.046 µM. Also, the 2-AG accumulation, % of vehicle control at 1 µM in assay [3] is 373%.
`O=C(c1nccs1)N1CCN(C2CN(C(=O)c3sc4cc(-c5ccccc5)ccc4c3C(F)(F)F)C2)CC1` [Cpd 1095, 1-(1-{[6-Phenyl-3-(trifluoromethyl)-1-benzothiophen-2-yl]carbonyl}azetidin-3-yl)-4-(1,3-thiazol-2-ylcarbonyl)piperazine]: the IC50 in assay [1] amounted to 11 nM. Also, the Kd in assay [2] (setting [5]) came out at 0.011 µM. Further, in assay [3], the 2-AG accumulation, % of vehicle control at 1 µM came out at 484%.
In turn, `Cc1cccc(-n2ccc3cc(C(=O)N4CC(N5CCN(C(=O)c6nccs6)CC5)C4)ccc32)n1` [Cpd 1126, 1-(6-Methylpyridin-2-yl)-5-({3-[4-(1,3-thiazol-2-ylcarbonyl)piperazin-1-yl]azetidin-1-yl}carbonyl)-1H-indole] gave an IC50 in assay [1] of 19 nM. The Kd in assay [2] (setting [6]) worked out at 0.008 µM. Also, the 2-AG accumulation, % of vehicle control at 1 µM in assay [3] worked out at 850%.
Take `O=C(c1cscn1)N1CCN(C2CN(C(=O)c3cccc4nc(-c5cccc(F)c5)oc34)C2)CC1` [Cpd 1254]: the IC50 in assay [1] was 765 nM. Further, the Kd in assay [2] (setting [7]) came out at 0.1 µM. The 2-AG accumulation, % of vehicle control at 1 µM in assay [3] was 187%.
Taken in the same sequence, the figures for `O=C(c1nccs1)N1CCN(C2CN(C(=O)c3cccc4nc(-c5ccccc5)oc34)C2)CC1` [Cpd 1154, 2-Phenyl-7-({3-[4-(1,3-thiazol-2-ylcarbonyl)piperazin-1-yl]azetidin-1-yl}carbonyl)-1,3-benzoxazole] were 40 nM, 0.006 µM and 558%.
Taken in the same sequence, the figures for `Cc1cc(-c2ccc(Cl)c(C(F)(F)F)c2)ccc1C(=O)N1CC(N2CCN(C(=O)c3cscn3)CC2)C1` [Cpd 254, 1-(1-{[4′-Chloro-3-methyl-3′-(trifluoromethyl)biphenyl-4-yl]carbonyl}azetidin-3-yl)-4-(1,3-thiazol-4-ylcarbonyl)piperazine] were less than 5 nM, 0.0059 µM and 544%.
For the molecule `O=C(c1ccc(S(=O)(=O)c2cccc(C(F)(F)F)c2)cc1)N1CC(N2CCN(C(=O)c3nccs3)CC2)C1` [Cpd 651], the 50% inhibitory concentration (IC50) in assay [1] turned out to be 7 nM. For the same molecule, in assay [2] (setting [5]), the Kd stood at 0.025 µM. The 2-AG accumulation, % of vehicle control at 1 µM in assay [3] turned out to be 258%.
For `Cc1c(C(=O)N2CC(N3CCN(C(=O)c4nccs4)CC3)C2)[nH]c2ccc(-c3ccc(F)cc3)cc12` [Cpd 1075, 5-(4-Fluorophenyl)-3-methyl-2-({3-[4-(1,3-thiazol-2-ylcarbonyl)piperazin-1-yl]azetidin-1-yl}carbonyl)-1H-indole], the IC50 in assay [1] worked out at 8 nM. Also, in assay [2] (setting [4]), the Kd was 0.01 µM. Besides, the 2-AG accumulation, % of vehicle control at 1 µM in assay [3] stood at 833%.
Turning to `O=C(c1ccc(-c2nc(-c3ccc(Cl)cc3Cl)cs2)cc1)N1CC(N2CCN(C(=O)c3nccs3)CC2)C1` [Cpd 1329], the IC50 in assay [1] was less than 5 nM. For the same molecule, the Kd in assay [2] (setting [5]) was 0.006 µM. In addition, the 2-AG accumulation, % of vehicle control at 1 µM in assay [3] was 834%.
Taken in the same sequence, the figures for `Cc1c(C(=O)N2CC(N3CCN(C(=O)c4nccs4)CC3)C2)sc2ccc(-c3ccccc3)cc12` [Cpd 1346, 1-{1-[(3-Methyl-5-phenyl-1-benzothiophen-2-yl)carbonyl]azetidin-3-yl}-4-(1,3-thiazol-2-ylcarbonyl)piperazine] were less than 5 nM, 0.002 µM and 406%.
With `NC(=O)c1cccc(-n2ccc3cc(C(=O)N4CC(N5CCN(C(=O)c6nccs6)CC5)C4)ccc32)c1` [Cpd 1177], inhibition in assay [1] was half-maximal at 63 nM (IC50). For the same molecule, the Kd in assay [2] (setting [4]) turned out to be 0.088 µM. Further, in assay [3], the 2-AG accumulation, % of vehicle control at 1 µM is 895%.
As for `O=C(c1ccc(-c2cccc(C(F)(F)F)c2)cc1)N1CCN(C2CN(C(=O)c3cscn3)C2)CC1` [Cpd 1067, 1-[1-(1,3-Thiazol-4-ylcarbonyl)azetidin-3-yl]-4-{[3′-(trifluoromethyl)biphenyl-4-yl]carbonyl}piperazine], the midpoint of inhibition in assay [1], the IC50, lay at 7 nM. For the same molecule, the Kd in assay [2] (setting [5]) was 0.007 µM. For the same molecule, the 2-AG accumulation, % of vehicle control at 1 µM in assay [3] turned out to be 408%.
In assay [1], `Cn1ccc2cc(C(=O)N3CC(N4CCN(C(=O)c5nccs5)CC4)C3)cc(Br)c21` [Cpd 681] yielded an IC50 of 27 nM. In addition, the Kd in assay [2] (setting [4]) is 0.067 µM. For the same molecule, in assay [3], the 2-AG accumulation, % of vehicle control at 1 µM is 406%.
In turn, `CCCCCc1ccc(C(=O)N2CC(N3CCN(C(=O)c4nccs4)CC3)C2)cc1` [Cpd 893] displayed an IC50 in assay [1] of less than 5 nM. In addition, in assay [2] (setting [5]), the Kd came out at 0.005 µM. In addition, the 2-AG accumulation, % of vehicle control at 1 µM in assay [3] came to 626%.
The molecule `O=C(c1ccc2c(c1)CCN(C(=O)c1ccc[nH]1)C2)N1CC(N2CCN(C(=O)c3nccs3)CC2)C1` [Cpd 690] showed a concentration for half-maximal inhibition (IC50) in assay [1] of 46 nM. Also, the Kd in assay [2] (setting [7]) worked out at 0.104 µM. Also, the 2-AG accumulation, % of vehicle control at 1 µM in assay [3] stood at 367%.
In the case of `Cc1cn(-c2cccc(OC(F)(F)F)c2)c2ccc(C(=O)N3CC(N4CCN(C(=O)c5nccs5)CC4)C3)cc12` [Cpd 1068], in assay [1], half-maximal inhibition (IC50) required 7 nM. Also, the Kd in assay [2] (setting [4]) amounted to 0.002 µM. Besides, the 2-AG accumulation, % of vehicle control at 1 µM in assay [3] was determined as 849%.
In assay [1], `O=C(c1ccc2c(ccn2-c2ccc(Cl)cn2)c1)N1CC(N2CCN(C(=O)c3nccs3)CC2)C1` [Cpd 1313, 1-(5-Chloropyridin-2-yl)-5-({3-[4-(1,3-thiazol-2-ylcarbonyl)piperazin-1-yl]azetidin-1-yl}carbonyl)-1H-indole] gave a half-maximal inhibitory concentration (IC50) of less than 5 nM. Further, the values for the Kd in assay [2] (setting [5]) and in assay [2] (setting [6]) were 0.003 µM and 0.001 µM, respectively. The 2-AG accumulation, % of vehicle control at 1 µM in assay [3] amounted to 851%.
In the case of `O=C(c1nccs1)N1CCN(C2CN(C(=O)C3CCC(c4ccc(Cl)cc4)CC3)C2)CC1` (stereo not shown) [Cpd 637], inhibition in assay [1] was half-maximal at 41 nM (IC50). For the same molecule, the Kd in assay [2] (setting [5]) was 0.053 µM. Also, the 2-AG accumulation, % of vehicle control at 1 µM in assay [3] was 272%.
